Assay results as given in US11739074B2, “Ras inhibitors” (Revolution Medicines, Inc., priority 2019, dated 2023).
Like-named read-outs stand apart in the source and are kept apart here.

Legend:
Format in all cases: cell-based
[1] = tested on: AsPC-1 (K-Ras G12D); assay: Potency assay: pERK in AsPC-1 cells; details: Homo sapiens
[2] = tested on: NCI-H358 (K-Ras G12C); assay: CellTiter-Glo cell viability assay, H358; details: Homo sapiens, NCI-H358, 120 h
Method in brief: (§1)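 Direct compound addition to plated cells; 5-day exposure; ~30 min RT equilibration; CellTiter-Glo luminescence. Normalization: (sample/avg DMSO)*100; 4-parameter logistic curve fit.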

[3] = tested on: AsPC-1 (K-Ras G12D); assay: CellTiter-Glo cell viability assay, AsPC-1; details: Homo sapiens, ASPC1, 120 h
Method in brief: as §1

[4] = ASPC1, read-out: pERK EC50 (AsPC-1 KRAS G12D)
[5] = read-out: H358 Cell Viability IC50, NCI-H358, K-Ras G12C, 5-day treatment
[6] = read-out: AsPC-1 Cell Viability IC50, AsPC-1, K-Ras G12D, 5-day treatment
[7] = ASPC1, AsPC-1 cells, K-Ras G12D, read-out: pERK EC50 (AsPC-1 KRAS G12D)
[8] = NCI-H358, K-Ras G12C, 5-day treatment, read-out: H358 Cell Viability IC50
[9] = AsPC-1, K-Ras G12D, 5-day treatment, read-out: AsPC-1 Cell Viability IC50

SMILES | EC50 [1, 4] [nM] | IC50 [2, 5] [nM] | IC50 [3, 6] [nM] | EC50 [1, 7] [nM] | IC50 [2, 8] [nM] | IC50 [3, 9] [nM]
CCn1c(-c2cccnc2[C@H](C)OC)c2c3cc(ccc31)-c1cc(O)cc(c1)C[C@H](NC(=O)[C@H](C(C)C)N(C)C(=O)CN(C)C(=O)[C@H]1CN1CCCC#N)C(=O)N1CCC[C@H](N1)C(=O)OCC(C)(C)C2 (stereo partly drawn) [Compound 273] | < 5000 | < 10 | 100 to 1000 |  |  | 
CCn1c(-c2cccnc2[C@H](C)OC)c2c3cc(ccc31)-c1cc(O)cc(c1)C[C@H](NC(=O)[C@H](C(C)C)N(C)C(=O)CN(C)C(=O)[C@@H]1N[C@H]1C(F)(F)F)C(=O)N1CCC[C@H](N1)C(=O)OCC(C)(C)C2 [Compound 260] | < 5000 | 10 to 100 | 100 to 1000 |  |  | 
CCn1c(-c2cccnc2[C@H](C)OC)c2c3cc(ccc31)-c1cc(O)cc(c1)C[C@H](NC(=O)[C@H](C(C)C)N(C)C(=O)CN(C)C(=O)[C@H]1CN1C(C)C)C(=O)N1CCC[C@H](N1)C(=O)OCC(C)(C)C2 (stereo partly drawn) [Compound 142] | < 5000 | < 10 | 100 to 1000 |  |  | 
CCn1c(-c2cccnc2[C@H](C)OC)c2c3cc(ccc31)-c1cc(O)cc(c1)C[C@H](NC(=O)[C@H](C(C)C)N1CC[C@]3(CCN(C(=O)[C@H]4CN4)C3)C1=O)C(=O)N1CCC[C@H](N1)C(=O)OCC(C)(C)C2 [Compound 146] |  |  |  | < 5000 | < 10 | 100 to 1000
CCn1c(-c2cccnc2[C@H](C)OC)c2c3cc(ccc31)-c1csc(n1)C[C@H](NC(=O)[C@H](C(C)C)N(C)C(=O)N1CC[C@@H](N(C)C(=O)[C@H]3CN3)C1)C(=O)N1CCC[C@H](N1)C(=O)OCC(C)(C)C2 [Compound 226] |  |  |  | < 5000 | 10 to 100 | 1000 to 10000
CCn1c(-c2cccnc2[C@H](C)OC)c2c3cc(ccc31)-c1cc(O)cc(c1)C[C@H](NC(=O)[C@H](C1CCCC1)N1CC[C@]3(CCN(C(=O)[C@H]4CN4)C3)C1=O)C(=O)N1CCC[C@H](N1)C(=O)OCC(C)(C)C2 [Example 175, (2S)-2-((S)-7-((R)-aziridine-2-carbonyl)-1-oxo-2,7-diazaspiro[4.4]nonan-2-yl)-2-cyclopentyl-N-((6^3S,4S)-1^1-ethyl-2^5-hydroxy-1^2-(2-((S)-1-methoxyethyl)pyridin-3-yl)-10,10-dimethyl-5,7-dioxo-6^1,6^2,6^3,6^4,6^5,6^6-hexahydro-1^1H-8-oxa-1(5,3)-indola-6(1,3)-pyridazina-2(1,3)-benzenacycloundecaphane-4-yl)acetamide] |  |  |  | < 5000 | < 10 | 10 to 100
CCn1c(-c2cccnc2[C@H](C)OC)c2c3cc(ccc31)-c1cc(O)cc(c1)C[C@H](NC(=O)[C@H](C(C)C)N(C)C(=O)CN(C)C(=O)[C@H]1CN1Cc1ccccc1CO)C(=O)N1CCC[C@H](N1)C(=O)OCC(C)(C)C2 (stereo partly drawn) [Compound 156] | < 5000 | < 10 | 100 to 1000 |  |  | 
CCn1c(-c2cccnc2[C@H](C)OC)c2c3cc(ccc31)-c1csc(n1)C[C@H](NC(=O)[C@H](C(C)C)N(C)C(=O)N1CCN(C(=O)[C@H]3CN3)C[C@H]1C)C(=O)N1CCC[C@H](N1)C(=O)OCC(C)(C)C2 [Compound 301] |  |  |  | < 5000 | < 10 | 100 to 1000
CCn1c(-c2cccnc2[C@H](C)OC)c2c3cc(ccc31)-c1cc(O)cc(c1)C[C@H](NC(=O)[C@H](C1CCCC1)N(C)C(=O)CN(C)C(=O)[C@@H]1N[C@@H]1C1CC1)C(=O)N1CCC[C@H](N1)C(=O)OCC(C)(C)C2 [Compound 170] |  |  |  | < 5000 | 10 to 100 | 10 to 100
CCn1c(-c2cccnc2[C@H](C)OC)c2c3cc(ccc31)-c1cc(O)cc(c1)C[C@H](NC(=O)[C@H](C(C)C)N(C)C(=O)CNC(=O)[C@@H]1N[C@@H]1C1CC1)C(=O)N1CCC[C@H](N1)C(=O)OCC(C)(C)C2 [Compound 141] | < 5000 | 100 to 1000 | 100 to 1000 |  |  | 
CCn1c(-c2cccnc2[C@H](C)OC)c2c3cc(ccc31)-c1csc(n1)C[C@H](NC(=O)[C@H](C(C)C)N(C)C(=O)N(C)CCN(C)C(=O)[C@H]1CN1)C(=O)N1CCC[C@H](N1)C(=O)OCC(C)(C)C2 [Compound 216] |  |  |  | < 5000 | 10 to 100 | 100 to 1000
CCn1c(-c2cccnc2[C@H](C)OC)c2c3cc(ccc31)-c1cc(O)cc(c1)C[C@H](NC(=O)[C@H](C(C)C)N(C)C(=O)CN(C)C(=O)[C@H]1CN1)C(=O)N1CCC[C@H](N1)C(=O)OCC(C)(C)C2 [Compound 42A] | < 5000 | < 10 | 100 to 1000 |  |  | 
CCn1c(-c2cccnc2[C@H](C)OC)c2c3cc(ccc31)-c1csc(n1)C[C@H](NC(=O)[C@H](C(C)C)N(C)C(=O)N1CC(CN(C)C(=O)[C@@H]3CN3)C1)C(=O)N1CCC[C@H](N1)C(=O)OCC(C)(C)C2 [Compound 225] |  |  |  | < 5000 | 10 to 100 | 100 to 1000
CCn1c(-c2cccnc2[C@H](C)OC)c2c3cc(ccc31)-c1cc(O)cc(c1)C[C@H](NC(=O)[C@H](C(C)C)N(C)C(=O)[C@@H]1CCN(C(=O)[C@H]3CN3)[C@@H]1C)C(=O)N1CCC[C@H](N1)C(=O)OCC(C)(C)C2 [Compound 207] |  |  |  | < 5000 | < 10 | 100 to 1000
CCn1c(-c2cccnc2[C@H](C)OC)c2c3cc(ccc31)-c1cc(O)cc(c1)C[C@H](NC(=O)[C@H](C(C)C)N1CCC3(CCN(C(=O)[C@H]4CN4)C3)C1=O)C(=O)N1CCC[C@H](N1)C(=O)OCC(C)(C)C2 (stereo partly drawn) [Compound 59] |  |  |  | < 5000 | < 10 | 100 to 1000
CCn1c(-c2cccnc2[C@H](C)OC)c2c3cc(ccc31)-c1csc(n1)C[C@H](NC(=O)[C@H](C1CCCC1)N(C)C(=O)CN(C)C(=O)[C@H]1CN1)C(=O)N1CCC[C@H](N1)C(=O)OCC(C)(C)C2 [Compound 132] |  |  |  | < 5000 | 10 to 100 | 1000 to 10000
CCn1c(-c2cccnc2[C@H](C)OC)c2c3cc(ccc31)-c1csc(n1)C[C@H](NC(=O)[C@H](C(C)C)N(C)C(=O)N1CCN(C(=O)[C@H]3CN3)[C@H](C)C1)C(=O)N1CCC[C@H](N1)C(=O)OCC(C)(C)C2 [Compound 299] |  |  |  | < 5000 | < 10 | 100 to 1000
CCn1c(-c2cccnc2[C@H](C)OC)c2c3cc(ccc31)-c1cc(O)cc(c1)C[C@H](NC(=O)[C@H](C(C)C)N(C)C(=O)CN(C)C(=O)[C@@H]1N[C@@H]1C1CCC1)C(=O)N1CCC[C@H](N1)C(=O)OCC(C)(C)C2 [Compound 287] | < 5000 | 10 to 100 | 100 to 1000 |  |  | 
CCn1c(-c2cccnc2[C@H](C)OC)c2c3cc(ccc31)-c1csc(n1)C[C@H](NC(=O)[C@H](C(C)C)N(C)C(=O)N1CCN(C(=O)[C@@H]3CN3)[C@@H](C)C1)C(=O)N1CCC[C@H](N1)C(=O)OCC(C)(C)C2 [Compound 298] |  |  |  | < 5000 | 10 to 100 | 100 to 1000
CCn1c(-c2cnccc2COC)c2c3cc(ccc31)-c1cc(O)cc(c1)C[C@H](NC(=O)[C@H](C(C)C)N(C)C(=O)CN(C)C(=O)[C@@H]1N[C@H]1c1ccc(OC)cc1)C(=O)N1CCC[C@H](N1)C(=O)OCC(C)(C)C2 [Compound 96] | < 5000 | 1000 to 10000 | 1000 to 10000 |  |  | 
CCn1c(-c2cccnc2[C@H](C)OC)c2c3cc(ccc31)-c1cc(O)cc(c1)C[C@H](NC(=O)[C@H](C(C)C)N(C)C(=O)CN(C)C(=O)[C@H]1CN1CCCOC(C)=O)C(=O)N1CCC[C@H](N1)C(=O)OCC(C)(C)C2 (stereo partly drawn) [Compound 266] | < 5000 | < 10 | 100 to 1000 |  |  | 
CCn1c(-c2cccnc2[C@H](C)OC)c2c3cc(ccc31)-c1cc(O)cc(c1)C[C@H](NC(=O)[C@H](C(C)C)N(C)C(=O)[C@H]1CCCN(C(=O)[C@@H]3CN3)C1)C(=O)N1CCC[C@H](N1)C(=O)OCC(C)(C)C2 [Compound 236] |  |  |  | < 5000 | < 10 | 1000 to 10000
CCn1c(-c2cccnc2[C@H](C)OC)c2c3cc(ccc31)-c1cc(O)cc(c1)C[C@H](NC(=O)[C@H](C1CCCC1)N1CC[C@@]3(CCN(C(=O)[C@H]4CN4)C3)C1=O)C(=O)N1CCC[C@H](N1)C(=O)OCC(C)(C)C2 [Compound 174] |  |  |  | < 5000 | < 10 | 100 to 1000
CCn1c(-c2cccnc2[C@H](C)OC)c2c3cc(ccc31)-c1cc(O)cc(c1)C[C@H](NC(=O)[C@H](C(C)C)N(C)C(=O)CN(C)C(=O)C1CN1CCOC)C(=O)N1CCC[C@H](N1)C(=O)OCC(C)(C)C2 (stereo partly drawn) [Compound 90] | < 5000 | < 10 | 100 to 1000 |  |  | 
CCn1c(-c2cccnc2[C@H](C)OC)c2c3cc(ccc31)-c1cc(O)cc(c1)C[C@H](NC(=O)[C@H](C1CCCC1)N(C)C(=O)CN(C)C(=O)[C@H]1N[C@H]1C1(OC)CC1)C(=O)N1CCC[C@H](N1)C(=O)OCC(C)(C)C2 (single isomer, unassigned) [Compound 322] |  |  |  | < 5000 | 10 to 100 | 1000 to 10000
CCn1c(-c2cccnc2[C@H](C)OC)c2c3cc(ccc31)-c1csc(n1)C[C@H](NC(=O)[C@H](C(C)C)N(C)C(=O)N1CCN(C(=O)[C@@H]3CN3)C[C@H]1C)C(=O)N1CCC[C@H](N1)C(=O)OCC(C)(C)C2 [Compound 302] |  |  |  | < 5000 | 10 to 100 | 100 to 1000
CCn1c(-c2cccnc2[C@H](C)OC)c2c3cc(ccc31)-c1cc(O)cc(c1)C[C@H](NC(=O)[C@H](C(C)C)N(C)C(=O)[C@@H]1CN1)C(=O)N1CCC[C@H](N1)C(=O)OCC(C)(C)C2 [Compound 100] |  |  |  | < 5000 | 10 to 100 | 100 to 1000
